US5939578A, “Vasomolol: an ultra short-acting and vasodilatory vanilloid type β - adrenoceptor antagonist” (Lin; Tong-Ho, priority 1996, dated 1999)

Legend:
β-adrenergic receptor = test: β-blockade and duration of action: inhibition of (-)isoproterenol-induced tachycardia during and after infusion; format: in vivo, pentobarbital-anesthetized rats
Description: Vasomolol (100 μg/kg/min) was infused consecutively into a femoral vein in pentobarbital-anesthetized rats. Each perfusion was maintained for 60 min. Before and during the infusion of vasomolol and esmolol, at 10-min intervals, bolus i.v. injections of (-) isoproterenol (0.5. μg/kg) were administered to assess the level of β-blockade. (-) lsoproterenol injections were also continued for 60 min. after termination of the highest dose of vasomolol and esmolol to assess the duration of β-blockade reported in J. Pharm. Exp. Ther. 237, 912, 1986 (by Quon, C. Y. et al.). The percentage of inhibition of the (-)isoproterenol-induced tachycardia parameter of β-blockade--was calculated during and after infusions of vasomolol.
isoproterenol (0.5 μg/kg)
vasomolol (0.5, 1.0, 3.0 mg/kg)

[1] = target: T1, β-adrenoceptor, ventricular membranes (Sus scrofa, UniProt Q28998); test: Competition for [3H]-DHA binding to ventricular membranes; set-up: species or system pig
T1 construct: tissue local slaughterhouse; host or cells: pig heart ventricular membranes
Description: Pig's heart were obtained from a local slaughterhouse immediately after the animals had been killed and transported to our laboratory in ice-cold buffer (250 mM sucrose/50 mM Tris [hydroxymethyl] aminomethane HCl/1 mM magnesium chloride, pH 7.4). Various heart tissues were removed and prepared as detailed as described in Cardiovasc. […] In the test for receptor binding, the ventricles were placed in ice-cold buffer and all subsequent procedures were carried out at 4° C. The tissue was homogenised in 20 volumes of TE buffer (10 mmole.litre^-1 Tris-HCl, 1 mmole.litre^-1 EDTA, 0.1 mmole.litre^-1 ascorbic acid, pH 7.4) with three 12-s pulses using a Polytron homogenizer (Kinematica, Model PT 3000, Switzerland). The homogenate was filtered with pressure through muslin and the filtrate centrifuged for 10 min at 1000 g to remove connective tissue, unbroken cells and cell debris.
This membrane preparation has been described in Biochem. Biophys. Acta. […] The binding assay of [^3 H]-DHA was carried out as described in Biochem. Biophys. Res. Commun. […] [^3 ]-DHA and ventricular membranes (200-300 μg) were incubated for 60 min at 25° C. with and without the addition of 1 μM alprenolol, in 75 mM Tris-HCI buffer comprising MgCl2 25 mM, to make a final volume of 250 μl. In competitive binding experiments, the competing agent was added directly to the incubation mixture. The incubation was terminated by addition of 1 ml of ice-cold assay buffer followed by immediate filtration through Whatman GF/C glass fiber filters supported on a 12-port filter manifold (Millipore). The filters were immediately washed three times with 5 ml of ice-cold assay buffer and dried in an oven at 60° C. for 2 hr prior to adding 5 ml of Triton-toluene based scintillation fluid.
In each experiment, non-specifically bound [^3 H]-DHA was determined by incubating membrane protein and [^3 H]-DHA with 1 μM alprenolol. Specific binding was thus obtained by deducing this value from the total binding of [^3 H]-DHA for each sample.
All incubations were performed as described in the method section. Data shown are the means of three independent duplicate determinations.

β1/β2-adrenoceptors = test: β1/β2-selectivity from mean pA2 values of right atria and trachea; set-up: species or system guinea-pig
Description: The β1 /β2 -selectivity ratio was obtained from the antilogarithm of the difference between the mean pA2 values obtained from the right atria and trachea as described in J. Pharm. […] The pA2 values and slope values were calculated from individual Schild plots by regression analysis. The β1 /β2 -selectivity ratio was obtained from the antilogarithm of the difference between the mean pA2 values obtained from right atrium and trachea.

T1 sequence (Q28998 whole entry): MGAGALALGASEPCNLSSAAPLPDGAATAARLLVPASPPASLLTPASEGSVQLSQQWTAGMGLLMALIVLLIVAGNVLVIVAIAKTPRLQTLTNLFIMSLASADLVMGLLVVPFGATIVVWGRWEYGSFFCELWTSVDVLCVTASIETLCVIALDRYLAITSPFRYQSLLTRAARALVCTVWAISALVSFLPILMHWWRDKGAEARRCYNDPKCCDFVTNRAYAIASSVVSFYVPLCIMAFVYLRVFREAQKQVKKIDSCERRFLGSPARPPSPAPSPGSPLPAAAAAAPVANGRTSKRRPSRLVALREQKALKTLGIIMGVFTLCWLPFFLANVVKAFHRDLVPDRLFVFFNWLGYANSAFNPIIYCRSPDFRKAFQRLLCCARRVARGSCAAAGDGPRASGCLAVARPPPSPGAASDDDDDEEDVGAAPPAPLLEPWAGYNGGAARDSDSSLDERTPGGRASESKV

order of potency inhibiting [3H]-DHA binding ([1]; in words): (-) propranolol>>vasomolol=esmolol
IC50 ([1]; mean±S.E.M.): 4.7 ± 1.5 µM
SMILES: CCOC(=O)c1ccc(OCC(O)CNC(C)(C)C)c(OC)c1 (centres unmarked) [Vasomolol]
onset of β-blockade to steady-state level (β-adrenergic receptor; after initiating each infusion rate, isoproterenol 0.5 μg/kg): ≤ 10 min
time required for 50% recovery (β-adrenergic receptor; after termination of infusion, mean±S.E.M.): 9.5 ± 1.0 min
disappearance of β-blockade after termination of infusion (β-adrenergic receptor; in words): disappeared rapidly after the termination of infusion
β1/β2 selectivity in words (β1/β2-adrenoceptors): selective for β1-adrenoceptors
β1/β2-selectivity ratio (β1/β2-adrenoceptors; antilogarithm of difference between mean pA2 of right atrium and trachea): 39.8
potency on right atria versus trachea (β1/β2-adrenoceptors; from mean pA2 values): 39.8 times
